The text below walks through data of patent US20060229299A1, “5ht2c Receptor antagonists in the treatment of schizophrenia” (priority 2003, published 2006).

In assay [1] the target is 5-HT1A receptor (Homo sapiens, UniProt P08908). As to conditions: cited from earlier work.
Assay [2] has as its target M1 muscarinic acetylcholine receptor (Homo sapiens, UniProt P11229). As to conditions: expressed as KD; cited from earlier work.
For assay [3], the target named is M3 muscarinic acetylcholine receptor (Homo sapiens, UniProt P20309). As to conditions: expressed as KD; cited from earlier work.
Assay [4] has as its target T1, M4 muscarinic acetylcholine receptor (Homo sapiens, UniProt P08173).
T1 sequence (P08173 1-479): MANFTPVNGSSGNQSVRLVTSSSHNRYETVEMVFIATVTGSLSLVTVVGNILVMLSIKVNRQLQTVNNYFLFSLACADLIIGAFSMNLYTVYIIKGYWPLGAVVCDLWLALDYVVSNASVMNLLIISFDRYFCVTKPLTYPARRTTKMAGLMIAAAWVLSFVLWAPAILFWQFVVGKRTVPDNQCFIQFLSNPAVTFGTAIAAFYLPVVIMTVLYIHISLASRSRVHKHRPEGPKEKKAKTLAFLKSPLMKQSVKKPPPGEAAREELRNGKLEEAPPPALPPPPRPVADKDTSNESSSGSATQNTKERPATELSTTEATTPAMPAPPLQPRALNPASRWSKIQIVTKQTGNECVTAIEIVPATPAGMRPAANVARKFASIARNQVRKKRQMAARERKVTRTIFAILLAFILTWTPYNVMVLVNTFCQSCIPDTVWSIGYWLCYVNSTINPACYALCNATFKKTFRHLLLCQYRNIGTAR
As to conditions: expressed as KD; cited from earlier work.

The target in assay [5] is T2, D4 dopamine receptor (Rattus norvegicus, UniProt P30729).
T2 sequence (P30729 1-387): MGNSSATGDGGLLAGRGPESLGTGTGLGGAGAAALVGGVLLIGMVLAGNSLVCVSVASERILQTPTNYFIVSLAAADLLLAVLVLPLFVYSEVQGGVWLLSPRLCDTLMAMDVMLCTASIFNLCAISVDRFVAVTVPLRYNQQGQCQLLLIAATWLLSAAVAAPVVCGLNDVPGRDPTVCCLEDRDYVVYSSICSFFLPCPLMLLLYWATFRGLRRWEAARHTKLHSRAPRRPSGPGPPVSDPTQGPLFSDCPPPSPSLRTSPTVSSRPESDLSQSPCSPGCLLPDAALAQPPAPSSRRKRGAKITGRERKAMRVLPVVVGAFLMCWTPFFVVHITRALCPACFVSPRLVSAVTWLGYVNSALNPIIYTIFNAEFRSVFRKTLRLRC
The conditions noted are these: cited from earlier work.

Assay [6] deals with T3, M5 muscarinic acetylcholine receptor (Homo sapiens, UniProt P08912).
T3 sequence (P08912 1-532): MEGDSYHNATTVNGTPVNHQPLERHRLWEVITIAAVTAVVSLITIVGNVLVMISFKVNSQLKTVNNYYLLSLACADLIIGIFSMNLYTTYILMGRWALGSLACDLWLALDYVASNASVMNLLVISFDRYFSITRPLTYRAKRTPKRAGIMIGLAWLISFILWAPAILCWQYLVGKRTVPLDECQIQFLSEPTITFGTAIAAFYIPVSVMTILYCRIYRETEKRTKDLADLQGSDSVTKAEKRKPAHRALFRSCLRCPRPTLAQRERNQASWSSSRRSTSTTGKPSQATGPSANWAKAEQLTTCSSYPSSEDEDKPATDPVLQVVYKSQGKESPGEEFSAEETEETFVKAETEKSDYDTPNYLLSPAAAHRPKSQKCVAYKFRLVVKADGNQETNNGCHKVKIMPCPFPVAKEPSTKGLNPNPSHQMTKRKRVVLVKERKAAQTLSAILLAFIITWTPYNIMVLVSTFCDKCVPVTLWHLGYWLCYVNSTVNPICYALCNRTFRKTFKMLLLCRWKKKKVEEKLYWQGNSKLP
The conditions noted are these: expressed as KD; cited from earlier work.

The target of assay [7] is D1 dopamine receptor (Rattus norvegicus, UniProt P18901). As to conditions: cited from earlier work.
Assay [8] concerns the target D2-S (short form of D2 receptor) (Homo sapiens, UniProt P14416). The conditions noted are these: cited from earlier work.
The next assay deals with T4, 5-HT2C receptor (Sus scrofa, UniProt K7GSR7).
T4 sequence (K7GSR7 1-457): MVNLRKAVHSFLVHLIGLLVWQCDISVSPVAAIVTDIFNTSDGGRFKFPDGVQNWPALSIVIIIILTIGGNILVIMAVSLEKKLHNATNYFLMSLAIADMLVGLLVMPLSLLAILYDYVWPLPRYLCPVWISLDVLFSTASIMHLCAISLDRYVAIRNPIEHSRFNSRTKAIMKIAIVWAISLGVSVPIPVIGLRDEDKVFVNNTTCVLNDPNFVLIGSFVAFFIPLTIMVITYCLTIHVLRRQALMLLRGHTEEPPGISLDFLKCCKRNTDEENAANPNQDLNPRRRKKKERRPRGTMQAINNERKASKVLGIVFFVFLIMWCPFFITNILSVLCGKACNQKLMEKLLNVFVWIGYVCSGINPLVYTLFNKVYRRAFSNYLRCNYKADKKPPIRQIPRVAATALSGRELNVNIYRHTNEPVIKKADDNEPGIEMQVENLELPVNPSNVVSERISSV
As to conditions: pig; cited from earlier work.

For assay [9], the target named is D2-L (long form of D2 receptor) (Homo sapiens, UniProt P14416). The conditions noted are these: cited from earlier work.
Assay [10] relates to 5-HT2C receptor relative to 5-HT2A and D2 receptors. Briefly: Relative 5-HT2C affinity (formula I, sum of 5-HT2C/5-HT2A and 5-HT2C/D2 affinity ratios). The conditions noted are these: Table 2; sum of affinity ratios from data of Table 1.
A further assay deals with sigma, σ receptor. As to conditions: guinea-pig; cited from earlier work.
The target of assay [11] is 5-HT7 receptor (Mus musculus, UniProt P32304). The conditions noted are these: cited from earlier work.
The next assay has as its target T5, 5-HT3 receptor (Mus musculus, UniProt P23979).
T5 sequence (P23979 24-489): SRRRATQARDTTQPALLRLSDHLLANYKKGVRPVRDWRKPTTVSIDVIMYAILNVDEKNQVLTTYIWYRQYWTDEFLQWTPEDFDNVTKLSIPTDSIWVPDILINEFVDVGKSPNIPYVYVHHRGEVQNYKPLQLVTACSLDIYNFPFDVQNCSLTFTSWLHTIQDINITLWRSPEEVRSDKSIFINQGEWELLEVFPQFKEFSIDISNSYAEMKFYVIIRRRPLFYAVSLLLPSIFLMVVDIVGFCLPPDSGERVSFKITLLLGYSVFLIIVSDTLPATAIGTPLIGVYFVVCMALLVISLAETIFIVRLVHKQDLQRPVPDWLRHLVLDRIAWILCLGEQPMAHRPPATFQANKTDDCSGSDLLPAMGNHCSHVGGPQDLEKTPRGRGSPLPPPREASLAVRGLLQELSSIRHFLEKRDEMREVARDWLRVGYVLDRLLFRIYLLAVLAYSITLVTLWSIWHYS
As to conditions: cited from earlier work.

A further assay addresses H1 histamine receptor (Cavia porcellus, UniProt P31389). As to conditions: guinea-pig; cited from earlier work.
For assay [12], the target named is mACh, muscarinic acetylcholine receptor. The conditions noted are these: rat; cited from earlier work.
The target of assay [13] is T6, D4 dopamine receptor (Homo sapiens, UniProt P21917).
T6 sequence (P21917 1-419): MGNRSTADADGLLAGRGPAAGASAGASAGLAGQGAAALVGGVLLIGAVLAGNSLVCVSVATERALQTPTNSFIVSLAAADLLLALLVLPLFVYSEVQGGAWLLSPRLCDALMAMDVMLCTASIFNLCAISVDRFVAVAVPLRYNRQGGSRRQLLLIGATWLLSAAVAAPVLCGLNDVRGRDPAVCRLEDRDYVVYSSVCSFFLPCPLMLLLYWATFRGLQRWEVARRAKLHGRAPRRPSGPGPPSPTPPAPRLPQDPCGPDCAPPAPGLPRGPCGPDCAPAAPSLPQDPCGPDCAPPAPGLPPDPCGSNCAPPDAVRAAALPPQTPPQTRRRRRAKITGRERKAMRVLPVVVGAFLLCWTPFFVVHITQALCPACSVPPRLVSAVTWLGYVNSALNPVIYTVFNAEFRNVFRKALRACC
As to conditions: human; cited from earlier work.

Assay [14] addresses α1-adrenoceptor. As to conditions: species for α1 not given; cited from earlier work.
The target in assay [15] is α2-adrenoceptor. As to conditions: species for α2 not stated; cited from earlier work.
A further assay deals with 5-HT6 receptor (Rattus norvegicus, UniProt P31388). The conditions noted are these: cited from earlier work.
The target in assay [16] is 5-HT7 receptor (Rattus norvegicus, UniProt P32305). The conditions noted are these: cited from earlier work.
Assay [17] addresses M2 muscarinic acetylcholine receptor (Homo sapiens, UniProt P08172). As to conditions: expressed as KD; cited from earlier work.
Assay [18] concerns the target α1-adrenoceptor. The conditions noted are these: human, expressed as KD; cited from earlier work.
Assay [19] addresses α2-adrenoceptor. As to conditions: human, expressed as KD; cited from earlier work.
Assay [20] addresses mACh, muscarinic acetylcholine receptor. As to conditions: human, expressed as KD; cited from earlier work.
In assay [21] the target is D1 dopamine receptor (Homo sapiens, UniProt P21728). As to conditions: cited from earlier work.
Assay [22] concerns the target T7, 5-HT1A receptor (Rattus norvegicus, UniProt P19327).
T7 sequence (P19327 1-422): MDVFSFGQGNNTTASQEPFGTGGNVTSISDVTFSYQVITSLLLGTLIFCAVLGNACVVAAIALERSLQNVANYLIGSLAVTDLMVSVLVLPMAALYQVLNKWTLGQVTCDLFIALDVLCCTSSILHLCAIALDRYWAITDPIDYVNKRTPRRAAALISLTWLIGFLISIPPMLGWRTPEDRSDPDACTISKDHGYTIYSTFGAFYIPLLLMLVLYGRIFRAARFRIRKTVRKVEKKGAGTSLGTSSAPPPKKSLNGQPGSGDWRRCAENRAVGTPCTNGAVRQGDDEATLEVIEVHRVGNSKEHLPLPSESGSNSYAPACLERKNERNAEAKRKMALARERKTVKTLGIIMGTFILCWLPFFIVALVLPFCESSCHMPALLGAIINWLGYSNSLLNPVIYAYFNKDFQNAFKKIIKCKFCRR
The conditions noted are these: cited from earlier work.

H1 histamine receptor, sequence (P31389 whole entry): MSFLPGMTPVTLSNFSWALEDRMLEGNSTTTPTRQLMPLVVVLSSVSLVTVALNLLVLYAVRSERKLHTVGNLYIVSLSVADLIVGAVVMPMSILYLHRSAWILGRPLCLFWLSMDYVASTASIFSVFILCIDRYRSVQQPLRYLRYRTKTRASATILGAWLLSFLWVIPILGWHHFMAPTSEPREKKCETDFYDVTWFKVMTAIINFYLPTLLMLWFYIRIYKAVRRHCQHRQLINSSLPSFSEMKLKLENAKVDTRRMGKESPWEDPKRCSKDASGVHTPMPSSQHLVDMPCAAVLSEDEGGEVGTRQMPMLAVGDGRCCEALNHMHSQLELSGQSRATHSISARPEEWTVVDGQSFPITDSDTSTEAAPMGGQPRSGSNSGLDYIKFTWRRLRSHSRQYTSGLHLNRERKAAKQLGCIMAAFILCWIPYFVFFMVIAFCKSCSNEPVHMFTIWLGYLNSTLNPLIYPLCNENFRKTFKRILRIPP
M3 muscarinic acetylcholine receptor, sequence (P20309 whole entry): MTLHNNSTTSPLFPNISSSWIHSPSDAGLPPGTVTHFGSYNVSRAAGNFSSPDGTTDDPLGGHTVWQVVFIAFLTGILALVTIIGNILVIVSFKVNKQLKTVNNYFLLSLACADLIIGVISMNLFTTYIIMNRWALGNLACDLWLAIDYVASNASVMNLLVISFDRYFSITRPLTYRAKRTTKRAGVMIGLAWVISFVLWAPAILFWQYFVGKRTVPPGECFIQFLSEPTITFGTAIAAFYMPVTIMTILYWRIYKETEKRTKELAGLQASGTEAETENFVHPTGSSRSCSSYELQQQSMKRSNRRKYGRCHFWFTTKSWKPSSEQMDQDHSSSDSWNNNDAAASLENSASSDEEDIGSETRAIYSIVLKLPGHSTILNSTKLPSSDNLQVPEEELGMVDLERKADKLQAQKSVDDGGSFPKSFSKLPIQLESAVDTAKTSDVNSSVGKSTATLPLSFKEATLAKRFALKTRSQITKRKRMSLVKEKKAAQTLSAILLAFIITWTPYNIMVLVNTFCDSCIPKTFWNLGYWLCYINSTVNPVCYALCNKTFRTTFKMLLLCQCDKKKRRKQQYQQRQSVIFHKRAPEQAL
5-HT7 receptor (Rattus norvegicus, UniProt P32305), sequence (P32305 whole entry): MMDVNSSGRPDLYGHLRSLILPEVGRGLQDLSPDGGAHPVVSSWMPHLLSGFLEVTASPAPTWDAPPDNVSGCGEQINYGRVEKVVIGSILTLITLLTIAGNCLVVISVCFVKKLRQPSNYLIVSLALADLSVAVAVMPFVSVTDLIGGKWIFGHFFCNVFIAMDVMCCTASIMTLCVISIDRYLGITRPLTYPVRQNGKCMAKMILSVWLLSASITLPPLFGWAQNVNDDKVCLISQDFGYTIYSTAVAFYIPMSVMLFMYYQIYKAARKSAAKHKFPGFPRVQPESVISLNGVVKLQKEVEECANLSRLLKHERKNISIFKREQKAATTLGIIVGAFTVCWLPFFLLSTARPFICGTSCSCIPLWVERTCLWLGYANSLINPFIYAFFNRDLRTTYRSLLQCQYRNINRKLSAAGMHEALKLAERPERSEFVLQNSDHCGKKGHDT
5-HT6 receptor, sequence (P31388 whole entry): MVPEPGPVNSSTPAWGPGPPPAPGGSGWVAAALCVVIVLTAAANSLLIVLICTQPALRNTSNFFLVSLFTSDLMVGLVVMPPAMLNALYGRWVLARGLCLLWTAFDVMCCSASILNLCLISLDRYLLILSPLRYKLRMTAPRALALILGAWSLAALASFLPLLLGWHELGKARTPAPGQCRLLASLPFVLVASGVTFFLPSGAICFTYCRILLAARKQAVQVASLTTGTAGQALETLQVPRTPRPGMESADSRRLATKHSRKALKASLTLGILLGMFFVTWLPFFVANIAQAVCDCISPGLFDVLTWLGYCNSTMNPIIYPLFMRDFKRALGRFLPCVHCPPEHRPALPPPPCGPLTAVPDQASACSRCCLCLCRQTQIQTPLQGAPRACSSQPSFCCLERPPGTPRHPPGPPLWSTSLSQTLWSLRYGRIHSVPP
D2-L (long form of D2 receptor), sequence (P14416 whole entry): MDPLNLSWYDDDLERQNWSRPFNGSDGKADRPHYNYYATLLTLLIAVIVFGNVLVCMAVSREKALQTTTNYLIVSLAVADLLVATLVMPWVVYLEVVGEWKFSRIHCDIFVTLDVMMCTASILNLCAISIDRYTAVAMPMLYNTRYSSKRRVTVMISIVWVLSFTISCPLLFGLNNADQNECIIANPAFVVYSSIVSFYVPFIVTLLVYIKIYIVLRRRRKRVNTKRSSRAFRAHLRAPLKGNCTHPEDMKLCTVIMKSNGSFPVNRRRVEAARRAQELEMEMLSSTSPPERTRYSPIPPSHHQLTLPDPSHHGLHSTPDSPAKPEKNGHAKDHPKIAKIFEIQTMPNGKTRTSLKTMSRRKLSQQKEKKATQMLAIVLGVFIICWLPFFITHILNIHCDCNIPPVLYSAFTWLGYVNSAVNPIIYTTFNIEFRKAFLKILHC
D1 dopamine receptor (Homo sapiens, UniProt P21728), sequence (P21728 whole entry): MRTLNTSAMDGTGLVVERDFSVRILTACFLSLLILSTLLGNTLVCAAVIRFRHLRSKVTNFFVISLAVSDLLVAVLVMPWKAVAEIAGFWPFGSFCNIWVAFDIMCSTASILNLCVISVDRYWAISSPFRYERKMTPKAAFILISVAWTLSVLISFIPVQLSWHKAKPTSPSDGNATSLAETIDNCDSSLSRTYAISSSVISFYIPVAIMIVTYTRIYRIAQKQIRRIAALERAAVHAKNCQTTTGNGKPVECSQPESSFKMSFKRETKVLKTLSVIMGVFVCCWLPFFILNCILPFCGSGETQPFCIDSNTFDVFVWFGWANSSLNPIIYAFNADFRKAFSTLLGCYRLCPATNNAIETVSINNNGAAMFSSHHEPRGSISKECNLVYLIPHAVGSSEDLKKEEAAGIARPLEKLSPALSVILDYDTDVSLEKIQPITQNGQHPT
M1 muscarinic acetylcholine receptor, sequence (P11229 whole entry): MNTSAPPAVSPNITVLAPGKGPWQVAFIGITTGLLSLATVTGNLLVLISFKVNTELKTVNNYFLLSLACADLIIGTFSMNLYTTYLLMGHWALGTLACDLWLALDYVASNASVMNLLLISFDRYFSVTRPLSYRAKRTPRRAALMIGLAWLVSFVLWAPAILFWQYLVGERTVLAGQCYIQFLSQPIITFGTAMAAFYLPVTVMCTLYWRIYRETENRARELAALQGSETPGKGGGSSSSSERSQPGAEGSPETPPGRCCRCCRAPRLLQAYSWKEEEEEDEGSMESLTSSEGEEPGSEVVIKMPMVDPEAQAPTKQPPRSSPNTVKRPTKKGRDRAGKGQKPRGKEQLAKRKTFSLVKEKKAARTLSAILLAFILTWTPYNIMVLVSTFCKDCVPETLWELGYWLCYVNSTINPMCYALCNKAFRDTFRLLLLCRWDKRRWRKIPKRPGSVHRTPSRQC
D2-S (short form of D2 receptor), sequence (P14416 1-414 isoform P14416-2): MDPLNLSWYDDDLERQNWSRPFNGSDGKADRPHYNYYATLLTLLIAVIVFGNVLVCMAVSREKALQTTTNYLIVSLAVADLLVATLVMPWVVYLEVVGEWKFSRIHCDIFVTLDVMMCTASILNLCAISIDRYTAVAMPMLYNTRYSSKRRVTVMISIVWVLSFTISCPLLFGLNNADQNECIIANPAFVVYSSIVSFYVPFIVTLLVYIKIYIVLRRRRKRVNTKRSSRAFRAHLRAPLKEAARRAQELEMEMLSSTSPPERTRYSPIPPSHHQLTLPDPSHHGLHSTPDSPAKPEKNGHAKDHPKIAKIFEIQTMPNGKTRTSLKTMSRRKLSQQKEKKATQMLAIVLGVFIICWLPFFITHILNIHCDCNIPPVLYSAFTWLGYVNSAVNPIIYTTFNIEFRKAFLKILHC
5-HT1A receptor (Homo sapiens, UniProt P08908), sequence (P08908 whole entry): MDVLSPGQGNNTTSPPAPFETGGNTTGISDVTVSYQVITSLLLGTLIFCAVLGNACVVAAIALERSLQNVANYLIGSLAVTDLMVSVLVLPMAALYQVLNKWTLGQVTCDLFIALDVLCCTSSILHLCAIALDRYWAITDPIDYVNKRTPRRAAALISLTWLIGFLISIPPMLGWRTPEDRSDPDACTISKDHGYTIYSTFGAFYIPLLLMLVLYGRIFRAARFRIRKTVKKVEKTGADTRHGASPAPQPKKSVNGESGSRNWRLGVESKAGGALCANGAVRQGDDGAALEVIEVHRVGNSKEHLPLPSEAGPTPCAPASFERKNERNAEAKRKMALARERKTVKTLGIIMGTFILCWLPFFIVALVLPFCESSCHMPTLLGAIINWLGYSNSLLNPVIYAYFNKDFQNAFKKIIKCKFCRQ
M2 muscarinic acetylcholine receptor, sequence (P08172 whole entry): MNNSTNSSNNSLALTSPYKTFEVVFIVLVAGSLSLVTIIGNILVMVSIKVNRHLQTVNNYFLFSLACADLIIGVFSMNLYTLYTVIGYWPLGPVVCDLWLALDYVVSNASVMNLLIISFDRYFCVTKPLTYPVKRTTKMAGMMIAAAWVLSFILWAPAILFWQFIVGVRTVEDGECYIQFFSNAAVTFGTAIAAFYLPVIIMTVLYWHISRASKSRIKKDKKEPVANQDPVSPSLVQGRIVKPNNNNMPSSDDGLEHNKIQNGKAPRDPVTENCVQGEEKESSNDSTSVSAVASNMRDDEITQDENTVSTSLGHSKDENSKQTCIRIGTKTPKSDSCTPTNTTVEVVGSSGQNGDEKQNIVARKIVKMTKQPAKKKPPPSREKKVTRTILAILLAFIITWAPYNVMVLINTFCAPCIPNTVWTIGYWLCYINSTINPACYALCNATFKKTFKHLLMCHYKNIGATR
5-HT7 receptor (Mus musculus, UniProt P32304), sequence (P32304 whole entry): as the sequence (P32305 whole entry) above, with G27R, P39S, L53P, P279S, S438C counted along it

`CN1CCN(C2=Nc3ccccc3Oc3ccc(Cl)cc32)CC1` [Loxapine]: the “5-HT1A affinity value (−logKi)” value on 5-HT1A receptor [1] is on record as 5.5^5. Besides, in assay [2], the “M1 affinity value (−log KD)” value is 7.2^15. Moreover, in assay [3], the “M3 affinity value (−log KD)” value is on record as 6.4^15. Also, in assay [4], the “M4 affinity value (−log KD)” value is given as 6.5^15. For the same compound, on D4 dopamine receptor [5], the “D4 affinity value (−logKi)” value is recorded as 7.9^4. Further, in assay [6], the “M5 affinity value (−log KD)” value is 6.6^15. Further, the “D1 affinity value (−logKi)” value on D1 dopamine receptor [7] is 7.5^18.

Take `NC(=O)C1(N2CCCCC2)CCN(CCCC(=O)c2ccc(F)cc2)CC1` [Pipamperone]: the “D2-S affinity value (−logKi)” value in [8] is 7.0^6. Besides, the “5-HT2C affinity value (−logKi)” value at 5-HT2C receptor is recorded as 6.9^6. Moreover, the “D2-L affinity value (−logKi)” value in assay [9] is listed as 6.9^6. The “(2C/2A) + (2C/D2)” value in [10] is recorded as 1.83. Also, the “sigma affinity value (−logKi)” value at sigma, σ receptor is reported as 7.3^6. At 5-HT7 receptor [11], the “5-HT7 affinity value (−logKi)” value is recorded as 6.8^6. Also, the “5-HT3 affinity value (−logKi)” value at 5-HT3 receptor was <5.3^6. Moreover, the “H1 affinity value (−logKi)” value on H1 histamine receptor was <5.3^6. For the same compound, in assay [12], the “mACh affinity value (−logKi)” value is <5.3^6. Moreover, on D4 dopamine receptor [13], the “D4 affinity value (−logKi)” value is 8.3^6. Moreover, at α1-adrenoceptor [14], the “α1 affinity value (−logKi)” value is 7.2^6. In addition, at α2-adrenoceptor [15], the “α2 affinity value (−logKi)” value is reported as 6.2^6.

In the case of `CN1CCN(CC/C=C2/c3ccccc3Sc3ccc(S(=O)(=O)N(C)C)cc32)CC1` [Thiothixene], at 5-HT6 receptor, the “5-HT6 affinity value (−logKi)” value is 7.4^2. Besides, in assay [10], the “(2C/2A) + (2C/D2)” value turned out to be 1.43. For the same compound, on 5-HT7 receptor [16], the “5-HT7 affinity value (−logKi)” value is given as 7.9^2. The “M3 affinity value (−log KD)” value in assay [3] was 5.8^15. Besides, the “M2 affinity value (−log KD)” value in assay [17] is 5.7^15. For the same compound, in [4], the “M4 affinity value (−log KD)” value is given as 5.8^15. Further, the “D4 affinity value (−logKi)” value at D4 dopamine receptor [5] is reported as 7.1^4. For the same compound, the “α1 affinity value (−log KD)” value at α1-adrenoceptor [18] was 8.0^16. The “M5 affinity value (−log KD)” value in assay [6] was 5.4^15. In addition, the “α2 affinity value (−log KD)” value on α2-adrenoceptor [19] was 6.7^16. Moreover, the “mACh affinity value (−log KD)” value in [20] was 5.5^16. For the same compound, the “D1 affinity value (−logKi)” value at D1 dopamine receptor [21] is recorded as 6.5^9.

For `CN(C)CCOC1=Cc2ccccc2Sc2ccc(Cl)cc21` [Zotepine], the “5-HT1A affinity value (−logKi)” value at 5-HT1A receptor [22] is recorded as 6.5^6. Further, the “5-HT6 affinity value (−logKi)” value on 5-HT6 receptor is on record as 9.0^2. Further, the “5-HT2C affinity value (−logKi)” value at 5-HT2C receptor was 8.5^6. The “(2C/2A) + (2C/D2)” value in assay [10] was 2.02. At 5-HT7 receptor [16], the “5-HT7 affinity value (−logKi)” value is reported as 8.8^2. The “sigma affinity value (−logKi)” value on sigma, σ receptor is 6.3^6. In addition, the “M4 affinity value (−log KD)” value in assay [4] was 7.1^15. Also, the “D4 affinity value (−logKi)” value on D4 dopamine receptor [5] is 8.2^4; at D4 dopamine receptor [13] it was 7.4^6. The “H1 affinity value (−logKi)” value at H1 histamine receptor is 8.5^6. Also, the “mACh affinity value (−logKi)” value in [12] was 6.3^6. Further, the “M5 affinity value (−log KD)” value in [6] is on record as 6.6^15. The “α1 affinity value (−logKi)” value on α1-adrenoceptor [14] is on record as 8.5^6.
